{"source": "patent US20070161691A1", "about": "“Modified-protein formation inhibitor” (TOKAI UNIVERSITY, priority 2003, published 2007)", "key": {"[1]": {"tested_on": "middle cerebral artery ischemia-reperfusion model", "assay": "Cerebroprotective action in middle cerebral artery ischemia-reperfusion model", "type": "in vivo, rat", "settings": "after reperfusion 22 hrs"}, "[2]": {"tested_on": "middle cerebral artery ischemia-reperfusion model", "assay": "Cerebroprotective action in middle cerebral artery ischemia-reperfusion model", "type": "in vivo, rat", "method": "CD(SD)IGS male rats (Japan Charles River Kabushiki […], Hino farm, room No. 22, specific product) (8 rats per one group) having body weight 270 to 350 g were anesthetized by 2% isoflurane (mixed bas comprising of 70% N2O (laughter gas) and 30% O2) to immobilize, and then the rats were put on warming plate to keep the rectal and brain temperature 37 to 38° C. After that, to observe the stability in the examination, canula which was made by polyethylene (PE-50, Becton Dickinson) was inserted and left in caudal artery of said animal, and this made blood drawing and blood pressure determining to monitor the biochemical parameter such as blood sugar level, hematocrit, CO2 concentration, oxygen partial pressure, pH, blood pressure and etc. In addition, cerebral blood flow in cortex was determined by laser doppler […] (Neuroscience.inc: OMEGA FLOW (FLO-C1)), putting the detection site directly on cranium on the point left 4 mm from bregma. Left neck of such animal was incised, and from internal and external carotid fork of common carotid artery to upstream of internal carotid, nylon surgical thread (length 16 mm, diameter 0.2 to 0.3 mm, with silicon coating on its tip 3 mm) was passed and left, middle cerebral artery was obstructed for 2 hours. After that, the thread was removed to release the middle cerebral artery, and blood was reperfused for 21 hours. To each animals, 3.0 mg/kg of 3-methyl-1-phenyl 2-pyrazolin-5-one (control, hereinafter referring to edaravone) and 4.23 mg/kg of 4-(5-phenyltetrazol-1-ylmethyl)-morpholine (compound 1) (test compound, hereinafter referring to TM-3001) were respectively administered twice by cannula which is left in caudal artery 5 minutes and 5 hours after middle cerebral artery occlusion. After said operation, the brain was removed from said animal, and after preparing 7 brain slices with 2 mm thickness, to TTC stain (0.8 g of 2,3,5-triphenyltetrazolium chloride (Sigma) dissolved in 40 ml of saline) were soaked at 37° C. for 15 minutes to stain, and fixed by 10% neutral formalin liquid to prepare specimen. Such specimens were created the image by CCD camera respectively, and analysed according to method of Swanson et al. (J Cereb Blood Flow Metab 10:290-293; […]). […] Furthermore, function recovering was estimated before and after the operation by rotor rod test that estimates how much they can walk on rotating rotor."}, "[3]": {"settings": "comparing to diluent single administration"}}, "data": [{"molecule": "CC1=NN(c2ccccc2)C(=O)C1", "note": "[Edaravone, 3-methyl-1-phenyl 2-pyrazolin-5-one, reference compound]", "values": [{"measurement": "Nervous condition estimation test, Ave (Bederson grade)", "setting": "[1]", "value": 1.5}, {"measurement": "Nervous condition estimation test, Ave (Bederson grade)", "setting": "[2]; after occlusion 10 min", "value": 2.8}, {"measurement": "Nervous condition estimation test, Ave (Bederson grade)", "setting": "[2]; after occlusion 2 hrs", "value": 2.7}, {"measurement": "Nervous condition estimation test, Ave (Bederson grade)", "setting": "[2]; after reperfusion 10 min", "value": 2.2}, {"measurement": "Nervous condition estimation test, Ave (Bederson grade)", "setting": "[2]; after reperfusion 3 hrs", "value": 2.1}, {"measurement": "Nervous condition estimation test, Ave (Bederson grade)", "setting": "[2]; after reperfusion 4 hrs", "value": 2.0}, {"measurement": "rotor rod test, Ave (count from rotor rod machine)", "setting": "[2]; before occlusion", "value": 197.0}, {"measurement": "improvement for nervous condition", "setting": "[2]; [3]", "value": "remarkably shown"}, {"measurement": "recovering the function, rotor rod test", "setting": "[2]; [3]", "value": "remarkably shown"}, {"measurement": "cerebral infarction nest", "setting": "[2]; comparing to diluent single administration, dosed 5 minutes and 5 hours after occlusion", "value": "significantly reduced"}, {"measurement": "rotor rod test, Ave (count from rotor rod machine)", "setting": "[2]; reperfusion", "value": 153.1}, {"measurement": "rotor rod test, ratio to before occlusion (%), Ave", "setting": "[2]; reperfusion vs before occlusion", "value": 160.4, "unit": "%"}]}]}
